Patent EP1673349B1, “BENZIMIDAZOLE DERIVATIVES: PREPARATION AND PHARMACEUTICAL APPLICATIONS” (priority 2003, dated 2005)
Where two headings read alike, the source gives them in different places.

Assays:
HDAC8 enzyme = test: In vitro HDAC assay (BIOMOL fluorescent-based HDAC activity assay), HDAC8; format: biochemical, human; details: Table 3; read-out: HDAC8 Enzyme Activity IC50
Method: (§1) Expression of GST-HDAC1 or HTGST-HDAC8 was done by infecting SF9 cells (Invitrogen Pte Ltd) with pDEST20-HDAC1 or pFASTBAC-GST-HDAC8 baculovirus at MOI=1 for 48 h. Soluble cell lysate was incubated with pre-equilibrated Glutathione Sepharose 4B beads (Amersham) at 4°C for 2 h. The beads were washed with PBS buffer for 3 times. The GST-HDAC1 protein or GST-HDAC8 protein was eluted by elution buffer containing 50 mM Tris, pH8.0, 150mM NaCl, 1% Triton X-100 and 10mM or 20mM reduced Glutathione. The purified GST-HDAC1 protein or purified GST-HDAC8 protein was dialyzed with HDAC storage buffer containing 10mM Tris, pH7.5, 100mM NaCl and 3mM MgCl2. 20% Glycerol was added to purified GST-HDAC1 protein or purified GST-HDAC8 before storage at -80°C.
(§2) The assay has been carried, out in 96 well format and the BIOMOL fluorescent-based HDAC activity assay has been applied. […] Flur de lys Developer was added and the reaction was incubated for 10 min. Briefly, deacetylation of the substrate sensitizes it to the developer, which then generates a fluorophore (symbol). The fluorophore is excited with 360 nm light and the emitted light (460 nm) is detected on a fluorometric plate reader (Tecan Ultra Microplate detection system, Tecan Group Ltd.).
(§3) The analytical software, Prism 3.0 has been used to generate IC50 from a series of data.

Colo205 = test: Cell-based proliferation assay (cyquant), Colo205; set-up: species or system human; details: Table 4, 96 h treatment;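 further: Colo205 cells exposed for 96 h to a range of compound concentrations, growth read by CyQUANT, GI50 taken from plotted dose-response curves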
Method: (§4) Human colon cancer cell lines (Colo205 and HCT116), human breast cancer cell lines (MDA-MB435 and MDA-MB231), and human lung cancer cell line (A549) were obtained from ATCC. […] MDA-MB435 cells were cultivated in DMEM containing 2 mM L-Glutamine, 5% FBS. HCT116 cells were cultivated in IMEM containing 2 mM L-Glutamine, 5% FBS. A549 and Colo205 cells were seeded in 96-wells plate at 2000 and 5000 cells per well respectively. MDA-MB435, HCT116, MDA-MB231 cells were seeded in 96-wells plate at 6000 cells per well. The plates were incubated at 37°C, 5% CO2, for 24 h. Cells, were treated with compounds at various concentration for 96 h. Cell growth was then monitored using cyquant cell proliferation assay (Invitrogen Pte Ltd). Dose response curves were plotted to determine GI50 values for the compounds using XL-fist.

MDA-MB435 = test: Cell-based proliferation assay (cyquant), MDA-MB435; set-up: species or system human; details: Table 4, 96 h treatment;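 further: GI50 taken from dose–response curves over a range of compound concentrations, with cell growth quantified by the CyQUANT proliferation assay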
Method: as §4

HDAC1 enzyme = HDAC1 enzyme (Homo sapiens, UniProt Q13547); test: In vitro HDAC assay (BIOMOL fluorescent-based HDAC activity assay), HDAC1; format: biochemical; details: Table 3; read-out: HDAC1 Enzyme Activity IC50
HDAC1 enzyme, sequence (Q13547 whole entry): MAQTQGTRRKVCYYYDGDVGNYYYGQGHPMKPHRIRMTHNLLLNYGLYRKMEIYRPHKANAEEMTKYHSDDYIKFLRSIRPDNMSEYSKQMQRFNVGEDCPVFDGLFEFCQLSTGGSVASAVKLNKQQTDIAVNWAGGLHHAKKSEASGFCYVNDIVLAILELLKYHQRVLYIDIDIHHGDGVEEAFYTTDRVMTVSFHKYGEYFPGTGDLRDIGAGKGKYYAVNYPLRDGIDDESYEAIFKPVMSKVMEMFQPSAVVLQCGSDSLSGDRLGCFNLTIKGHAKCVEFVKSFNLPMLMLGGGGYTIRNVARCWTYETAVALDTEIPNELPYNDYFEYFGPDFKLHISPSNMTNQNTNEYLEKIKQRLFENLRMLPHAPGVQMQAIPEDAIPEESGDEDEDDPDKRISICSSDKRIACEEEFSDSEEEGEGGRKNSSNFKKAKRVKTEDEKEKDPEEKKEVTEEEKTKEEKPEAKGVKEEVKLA
Method: as §1, §2, §3

| IC50 (HDAC8 enzyme) [µM] | IC50 (HDAC1 enzyme) [µM] | Structure (SMILES) | also measured |
| --- | --- | --- | --- |
| 0.401 |  | COc1ccc(-c2nc3cc(/C=C/C(=O)NO)ccc3n2CCO)cc1 [Compound 5, N-Hydroxy-3-[1-(2-hydroxy-ethyl)-2-(4-methoxy-phenyl)-1H-benzimidazole-5-yl]-acrylamide] | GI50 (Colo205; Homo sapiens, COLO 205): > 100 µM |
| 0.161 |  | O=C(/C=C/c1ccc2c(c1)nc(-c1ccncc1)n2CCCO)NO [Compound 11, N-Hydroxy-3-[1-(3-hydroxy-propyl)-2-(4-pyridyl)-1H-benzimidazol-5-yl]-acrylamide] | GI50 (Colo205; Homo sapiens, COLO 205): > 100 µM; GI50 (MDA-MB435; Homo sapiens, MDA-MB-435): > 100 µM |
| 0.141 | 0.385 | O=C(/C=C/c1ccc2c(c1)nc(-c1ccccn1)n2CCCO)NO [Compound 13, N-Hydroxy-3-[1-(3-hydroxy-propyl)-2-(2-pyridyl)-1H-benzimidazol-5-yl]-acylamide] |  |
| 0.313 | 0.206 | COCCCn1c(CCc2ccccc2)nc2cc(/C=C/C(=O)NO)ccc21 [Compound 15] |  |
| 0.29 | 0.438 | O=C(/C=C/c1ccc2c(c1)nc(CCc1ccccc1)n2CCc1ccccn1)NO [Compound 18] |  |
| 34 | 49.1 | CC(C)Cc1nc2cc(CCC(=O)NO)ccc2n1CCCO [Compound 29, N-Hydroxy-3-[1-(3-Hydroxy-propyl)-2-isobutyl-1H-benzimidazol-5-yl]-propionamide] |  |
| 0.846 |  | CC(C)Cc1nc2cc(/C=C/C(=O)NO)ccc2n1Cc1ccccc1 [Compound 34, N-Hydroxy-3-(1-Benzyl-2-isobutyl-1H-benzimidazol-5-yl)-acrylamide] |  |
| 0.441 | 3.3 | O=C(NO)c1ccc2c(c1)nc(CCc1ccccc1)n2CCCO [Compound 40, 1-(3-Hydroxy-prorpyl)-2-phenethyl-1H-benzimidazol-5-carboxylic acid hydroxyamide] |  |
| 0.159 | 0.195 | CC(Cc1nc2cc(/C=C/C(=O)NO)ccc2n1CCc1cccnc1)c1ccccc1 (stereo not drawn) [Compound 41] |  |
|  | 0.167 | COc1cc(Cn2c(CCc3ccccc3)nc3cc(CCC(=O)NO)ccc32)cc(OC)c1OC [Compound 45] | GI50 (Colo205; read-out: GI50 (Colo 205)): 2.41 µM; GI50 (MDA-MB435): 1.9 µM |
|  | 1.67 | CC(C)c1nc2cc(/C=C/C(=O)NO)ccc2n1CCCO [Compound 46] |  |
|  | 0.196 | Cn1c(CN(Cc2ccccc2)Cc2ccccc2)nc2cc(/C=C/C(=O)NO)ccc21 [Compound 61] |  |
|  | 0.234 | COc1ccc(CNCc2nc3cc(/C=C/C(=O)NO)ccc3n2C)cc1 [Compound 62] |  |
| 0.255 |  | CCN(CC)CCn1c(CCc2ccccc2)nc2cc(/C=C/C(=O)NO)ccc21 [Compound 66, N-Hydroxy-3-[1-(2-diethylamino-ethyl)-2-phenethyl-1H-benzimidazol-5-yl]-acrylamide] | GI50 (Colo205; Homo sapiens, COLO 205, 96 h): 0.22 µM |
|  | 0.294 | CCn1c(CN(Cc2ccccc2)Cc2ccccc2)nc2cc(/C=C/C(=O)NO)ccc21 [Compound 68] |  |
|  | 0.146 | Cn1c(CNC(=O)Cc2ccc(F)cc2)nc2cc(/C=C/C(=O)NO)ccc21 [Compound 69] |  |
|  | 0.923 | CCn1c(CCNC(=O)Cc2ccccc2)nc2cc(/C=C/C(=O)NO)ccc21 [Compound 70] | GI50 (Colo205; read-out: GI50 (Colo 205)): 2.9 µM |
|  | 0.167 | CCn1c(CCNS(=O)(=O)c2ccccc2)nc2cc(/C=C/C(=O)NO)ccc21 [Compound 71] |  |
|  | 0.56 | CCn1c(CCNC(=O)COc2ccccc2)nc2cc(/C=C/C(=O)NO)ccc21 [Compound 73] |  |
|  | 0.57 | O=C(/C=C/c1ccc2c(c1)nc(CCc1ccccc1)n2CCO)NO [Compound 77] |  |
|  | 1.26 | C=CCn1c(CCc2ccccc2)nc2cc(/C=C/C(=O)NO)ccc21 [Compound 79] |  |
|  | 1.69 | CC(C)OCCCn1c(CCc2ccccc2)nc2cc(/C=C/C(=O)NO)ccc21 [Compound 80] |  |
|  | 1.6 | CN1CCN(CCCn2c(CCc3ccccc3)nc3cc(/C=C/C(=O)NO)ccc32)CC1 [Compound 81] |  |
|  | 0.071 | CN(C)CC(C)(C)Cn1c(CCCc2ccccc2)nc2cc(/C=C/C(=O)NO)ccc21 [Compound 83] |  |
|  | 0.054 | CN(C)CC(C)(C)Cn1c(CCc2ccc(F)cc2)nc2cc(/C=C/C(=O)NO)ccc21 [Compound 84] |  |

Second part, the compound before the results:

| Structure (SMILES) | IC50 (HDAC8 enzyme) [µM] | IC50 (HDAC1 enzyme) [µM] | also measured |
| --- | --- | --- | --- |
| COc1cc(-c2nc3cc(/C=C/C(=O)NO)ccc3n2CCCO)ccc1OCc1ccccc1 [Compound 4, N-Hydroxy-3-[2-(4-benzyloxy-3-methoxy-phenyl)-1-(3-hydroxy-propyl)-1H-benzimidazole-5-yl]-acrylamide] | 0.79 |  | GI50 (Colo205; Homo sapiens, COLO 205, 96 h): 29.9 µM; GI50 (MDA-MB435; Homo sapiens, MDA-MB-435): 25.7 µM |
| O=C(/C=C/c1ccc2c(c1)nc(CCc1ccccc1)n2CC(O)CO)NO (stereo not drawn) [Compound 8] | 0.454 | 0.286 |  |
| O=C(/C=C/c1ccc2c(c1)nc(-c1ccncc1)n2CCO)NO [Compound 10, N-Hydroxy-3-[1-(2-hydroxy-ethyl)-2-(4-pyridyl)-1H-benzimidazol-5-yl]-acrylamide] | 0.883 |  |  |
| CC(C)Cc1nc2cc(/C=C/C(=O)NO)ccc2n1CCc1ccccn1 [Compound 22] | 0.234 | 1.33 |  |
| O=C(/C=C/c1ccc2c(c1)nc(CCc1ccccc1)n2CCc1ccccc1)NO [Compound 26, N-Hydroxy-3-(1,2-Diphenethyl-1H-benzimidazol-5-yl]-acylamide] |  |  | GI50 (Colo205; Homo sapiens, COLO 205, 96 h): 8.79 µM; GI50 (MDA-MB435; Homo sapiens, MDA-MB-435): 6.67 µM |
| O=C(/C=C/c1ccc2c(c1)nc(COCc1ccccc1)n2CCc1cccnc1)NO [Compound 28] | 0.3 | 0.206 |  |
| O=C(O)CCn1c(CCc2ccccc2)nc2cc(/C=C/C(=O)NO)ccc21 [Compound 32, 3-[5-(2-Hydrocarbamoyl-vinyl)-2-phenethyl-benzimidazol-1-yl]-propionic acid] | 1.89 | 2.21 |  |
| CCCn1cnc2cc(/C=C/C(=O)NO)ccc21 [Compound 37, N-Hydroxy-3-(1-propyl-1H-benzimidazol-5-yl)-acrylamide] |  |  | GI50 (Colo205; Homo sapiens, COLO 205): 7.82 µM; GI50 (MDA-MB435; Homo sapiens, MDA-MB-435): 7.9 µM |
| CCn1c(CCc2ccccc2)nc2cc(/C=C/C(=O)NO)ccc21 [Compound 38, N-Hydroxy-3-(1-Ethyl-2-phenethyl-1H-benzimidazol-5-yl)-acrylamide] |  |  | GI50 (Colo205; Homo sapiens, COLO 205, 96 h): 1.47 µM; GI50 (MDA-MB435; Homo sapiens, MDA-MB-435): 1.53 µM |
| CCn1cnc2cc(/C=C/C(=O)NO)ccc21 [Compound 39, N-Hydroxy-3-(1-Ethyl-1H-benzimidazol-5-yl)-acrylamide] |  |  | GI50 (Colo205; Homo sapiens, COLO 205, 96 h): 11.7 µM; GI50 (MDA-MB435; Homo sapiens, MDA-MB-435): 12.1 µM |
| O=C(/C=C/c1ccc2c(c1)ncn2CCc1ccccn1)NO [Compound 42, N-Hydroxy-3-[1-(2-pyridin-2-yl-ethyl)-1H-benzimidazol-5-yl]-acrylamide] |  |  | GI50 (Colo205; Homo sapiens, COLO 205): 14.4 µM; GI50 (MDA-MB435; Homo sapiens, MDA-MB-435): 15.8 µM |
| Cn1c(CCc2ccccc2)nc2cc(/C=C/C(=O)NO)ccc21 [Compound 48, N-Hydroxy-3-(1-methyl-2-phenethyl-1H-benzimidazol-5-yl)-acrylamide] |  |  | GI50 (Colo205; Homo sapiens, COLO 205, 96 h): 1.45 µM; GI50 (MDA-MB435; Homo sapiens, MDA-MB-435): 1.78 µM |
| O=C(/C=C/c1ccc2[nH]c(CCc3ccccc3)nc2c1)NO [Compound 50, N-Hydroxy-3-(2-phenethyl-1H-benzimidazol-5-yl)-acrylamide] |  |  | GI50 (Colo205; Homo sapiens, COLO 205, 96 h): 4.29 µM; GI50 (MDA-MB435; Homo sapiens, MDA-MB-435): 5.19 µM |
| Cn1c(CCCc2ccccc2)nc2cc(/C=C/C(=O)NO)ccc21 [Compound 52, N-Hydroxy-3-[1-methyl-2-(3-phenyl-propyl)-1H-benzimidazol-5-yl]-acrylamide] |  |  | GI50 (Colo205; Homo sapiens, COLO 205): 2.04 µM; GI50 (MDA-MB435; Homo sapiens, MDA-MB-435): 3.58 µM |
| O=C(/C=C/c1ccc2c(c1)nc(CCc1ccccc1)n2CCCn1ccnc1)NO [Compound 56, N-Hydroxy-3-[1-(-3-imidazol-1-yl-propyl)-2-phenethyl-1H-benzimidazol-5-yl]-acrvlamide] |  | 0.158 |  |
| CN(C)CCCCn1c(CCc2ccccc2)nc2cc(/C=C/C(=O)NO)ccc21 [Compound 57, N-Hydroxy-3-[1-(4-dimethylamino-butyl)-2-phenethyl-1H-benzimidazol-5-yl]-acrylamide] |  |  | GI50 (Colo205; Homo sapiens, COLO 205, 96 h): 1.11 µM; GI50 (MDA-MB435; Homo sapiens, MDA-MB-435): 1.39 µM |
| Cn1c(CNCc2ccccc2)nc2cc(/C=C/C(=O)NO)ccc21 [Compound 60, N-Hydroxy-3-[2-(benzylamino-methyl)-1-methyl-1H-benzimidazol-5-yl]-acrylamide] |  |  | GI50 (Colo205; Homo sapiens, COLO 205): 2.47 µM; GI50 (MDA-MB435; Homo sapiens, MDA-MB-435): 3.6 µM |
| CN(C)CCCn1c(CCc2ccccc2)nc2cc(/C=C/C(=O)NO)ccc21 [Compound 63, N-Hydroxy-3-[1-(3-dimethylamino-propyl)-2-phenethyl-1H-benzimidazol-5-yl]-acrylamide] |  |  | GI50 (Colo205; Homo sapiens, COLO 205, 96 h): 2 µM |
| CCn1c(CCNCc2ccccc2)nc2cc(/C=C/C(=O)NO)ccc21 [Compound 74, N-Hydroxy-3-[2-(2-benzylamino-ethyl)-1-ethyl-1H-benzimidazol-5-yl]-acrylamide] |  |  | GI50 (Colo205; Homo sapiens, COLO 205): 2.07 µM |
| CC(C)(C)Cn1c(CCc2ccccc2)nc2cc(/C=C/C(=O)NO)ccc21 [Compound 75] |  |  | GI50 (Colo205; read-out: GI50 (Colo 205)): 2.88 µM |
| O=C(/C=C/c1ccc2c(c1)nc(CCc1ccccc1)n2C1CCN(Cc2ccccc2)CC1)NO [Compound 76] |  | 1.03 |  |
| O=C(/C=C/c1ccc2c(c1)nc(CCc1ccccc1)n2CCCCCO)NO [Compound 78] |  | > 100 |  |
| O=C(/C=C/c1ccc2c(c1)nc(CCc1ccccc1)n2CCCN1CCCC1)NO [Compound 82, N-Hydroxy-3-[2-phenethyl-1-(3-pyrrolidin-1-yl-propyl)-1H-benzimidazol-5-yl]-acrylamide] |  |  | GI50 (Colo205; Homo sapiens, COLO 205, 96 h): 0.72 µM |
| CN(C)CC(C)(C)Cn1c(CCc2cccnc2)nc2cc(/C=C/C(=O)NO)ccc21 [Compound 86, N-Hydroxy-3-[1-(3-Dimethylamino-2,2-dimethyl-propyl)-2-(2-pyridin-3-yl-ethyl)-1H-benzimidazol-5-yl]acrylamide] |  |  | GI50 (Colo205; Homo sapiens, COLO 205): 13.1 µM |
| COc1cc(Cn2c(CCc3ccccc3)nc3cc(C4CC4C(=O)NO)ccc32)cc(OC)c1OC (stereo not drawn) [Compound 88, 2-[2-Phenethyl-1-(3,4,5-trimethoxy-benzyl)-1H-benzimidazol-5-yl]-cyclopropanecarboxylic acid hydroxyamide] |  | 0.297 | GI50 (Colo205; Homo sapiens, COLO 205, 96 h): 1.26 µM |
| O=C(/C=C/c1ccc2c(c1)ncn2CCN1CCCCC1)NO [Compound 90] |  | 0.166 |  |
